Experimental data from patent US20240118268A1, “BIOMARKERS ON CELLULAR ENDOCRINE MODELS FOR ENDOCRINE DISRUPTION ASSESSMENT” (priority 2020, published 2024).
“Also recorded” adds a separate entry of the source. Read-outs that look alike come from different tables or passages of the source.

Experiments:
P2X7 receptor = molecular target: T1, P2X7 receptor (Homo sapiens, UniProt Q99572); assay type: cell-based; conditions: 72 h; for P2X7 receptor activation (in words): JEG-Tox; for P2X7 activation (concentration): Table 4 summary
T1 construct: P2X7 receptor is expressed by human placenta and JEG-Tox; endogenous in cells; host or cells: JEG-3 human trophoblast cell line (ATCC HTB-36) cultured in 2.5% FBS (JEG-Tox)
T1 sequence (Q99572 1-595): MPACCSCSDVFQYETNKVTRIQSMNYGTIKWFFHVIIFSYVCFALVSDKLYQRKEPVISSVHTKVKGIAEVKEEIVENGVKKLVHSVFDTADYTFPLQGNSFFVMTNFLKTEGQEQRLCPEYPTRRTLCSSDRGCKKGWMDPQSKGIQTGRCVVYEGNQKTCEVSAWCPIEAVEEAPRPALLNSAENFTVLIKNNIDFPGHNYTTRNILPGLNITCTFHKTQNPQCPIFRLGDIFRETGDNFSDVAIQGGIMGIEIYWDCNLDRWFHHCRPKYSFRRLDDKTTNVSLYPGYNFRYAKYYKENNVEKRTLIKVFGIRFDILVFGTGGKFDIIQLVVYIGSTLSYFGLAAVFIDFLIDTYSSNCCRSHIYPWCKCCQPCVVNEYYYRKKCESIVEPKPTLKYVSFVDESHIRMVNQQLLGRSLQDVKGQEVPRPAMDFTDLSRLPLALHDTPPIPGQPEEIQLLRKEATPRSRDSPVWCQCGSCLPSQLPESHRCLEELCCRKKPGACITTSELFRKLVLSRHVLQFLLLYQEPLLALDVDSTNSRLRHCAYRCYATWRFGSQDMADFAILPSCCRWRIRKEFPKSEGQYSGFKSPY
Description: (§1) P2X7 cell death receptor activation was evaluated using the YO-PRO-1® assay (Rat et al. J Biol Methods. 2017 Jan. 20; 4(1):e64). YO-PRO-1® probe only enters into cells after P2X7 receptor activation-induced pore opening, and binds to DNA, emitting fluorescence. A 1 mM YO-PRO-1 stock solution was diluted at 1/500 in PBS just before use and distributed into the wells of the microplate. After a 10-minute incubation time at room temperature, fluorescence signal was read (λex=491 nm, λem=509 nm) with a Spark cytofluorometer.
as §1, with “al., 2017).” for “al. J Biol Methods. 2017 Jan. 20; 4(1):e64).”, “(λex=485” for “(λex=491”, “λem=531” for “λem=509”

caspase-1 = experiment: Caspase 1 activity, Caspase-Glo 1 Inflammasome Assay; assay type: cell-based, human; conditions: 72 h; for Casp-1 activation (concentration): Table 4 summary; for caspase-1 activity compared to control: highest concentration tested
Description: Caspase 1 activity was evaluated using the Caspase-Glo® 1 1 Inflammasome Assay kit. The assay was performed according to the manufacturer's instructions. Luminescence was quantified with a Spark microplate reader.
Caspase 1 activity was evaluated using the Caspase-Glo®1 Inflammasome Assay kit. The assay was performed according to the manufacturer's instructions. Luminescence was quantified with a Spark microplate reader.

[1] = Neutral Red cell viability assay on JEG-Tox cells, 72 h; assay type: cell-based, human; conditions: human
Description: (§2) The JEG-3 human trophoblast cell line, derived from a human placental carcinoma, was obtained from the American Type Culture Collection (ATCC HTB-36). Cells were cultured in minimum Essential medium, supplemented with 10% fetal bovine serum (FBS), 1% L-glutamine, 0.5% penicillin and streptomycinin, in 75 cm2 polystyrene flasks. Cell cultures were maintained in a cell culture incubator (37° C., saturated humidity, 5% CO2). When the JEG-3 cells reached subconfluency, they were detached using trypsin-EDTA and counted. The cellular suspension was diluted and seeded either in 96-well microplates at a cellular density of 80,000 cells/mL or in 6-well microplates at 120,000 cells/mL, then kept at 37° C. for 24 h. The cells were incubated with EDCs according to example 1.
(§3) Cell viability was evaluated using the Neutral Red assay. The Neutral Red solution at 0.4% (m/v in water) was diluted in cell culture medium to obtain a working concentration of 50 μg/mL. […] The cells were then rinsed with PBS and lysed with a solution of acetic acid-ethanol (ethanol 50.6%, water 48.4% and acetic acid 1%). After homogenization, the fluorescence signal was scanned (λexc=540 nm, λem=600 nm) with a Tecan Spark microplate reader (Mannedorf, Switzerland). The cell viability was calculated compared to the control cells (the fluorescence of the control cells as 100% viability).

JEG-Tox cells [2] = experiment: as above; assay type: cell-based, human; conditions: 72 h
Description: as §2, §3

JEG-Tox cells [3] = experiment: Chromatin condensation (Hoechst 33342) as a hallmark of apoptosis; assay type: cell-based, human; conditions: 24 h
Description: The UV fluorescent probe Hoechst 33342 enters living and apoptotic cells, intercalating into DNA. The fluorescent signal is proportional to chromatin condensation in apoptosis. The cells were incubated with Hoechst 33342 at 10 μg/mL for 30 minutes at room temperature. The fluorescence signal was read (λex=360 nm, λem=460 nm) using a cytofluorometer (Spark).

caspase-9 = experiment: Caspase 9 activity, Caspase-Glo 9 Assay; assay type: cell-based, human; conditions: 10 μM
Description: Caspase 9 activity was evaluated using the Caspase-Glo® 9 Assay kit. The assay was performed according to the manufacturer's instructions. Luminescence was quantified with a Spark microplate reader.

JEG-3 cells = experiment: Neutral red cell viability of JEG-3 cells with SLS or PFOA in 10% or 2.5% FBS; conditions: for living cells: 2.5% FBS
Description: The choriocarcinoma-derived JEG-3 cell-line (ATCC® HTB-36™, Manassas, VA, USA), was grown as recommended by ATCC: Minimum Essential Medium Eagle's medium supplemented with 10% fetal bovine serum, 2 mM of glutamine, 50 IU/mL of penicillin and 50 IU/mL of streptomycin. Cells were detached using trypsin, counted, and then seeded at 80,000 cells/mL in 96-well microplates (200 μL by well) and Nunc® Lab-Tek® II Chamber Slide™ system for immunostaining.
Cells were incubated with sodium lauryl sulfate or perfluorooctanoic acid diluted in culture medium supplemented with either 2.5% or 10% FBS. After 24 hours, cell viability was evaluated using the neutral red assay. Neutral Red solution at 0.4% in water was diluted in culture medium with a ratio of 1:79 to give a final concentration of 50 μg/mL. Neutral Red was distributed in the plates for a 3-hour incubation time at 37° C. The cells were then rinsed with PBS to remove any remaining unincorporated dye. The dye was then released from the cells using a lysis solution (1% acetic acid, 50% ethanol and 49% H2O) and the fluorescence was measured (λex=540 nm, λem=600 nm) using Spark microplate fluorometer (Tecan, Mannedorf, Switzerland).

[4] = JEG-Tox cells, 50 μM, 72 h, read-out: cell viability
[5] = Table 4 summary, loss of viability >= 30% counted as cytotoxic

SMILES	P2X7 receptor activation compared to control (P2X7 receptor; 10 μM) [fold change]	P2X7 receptor activation (in words) (P2X7 receptor)	P2X7 activation (concentration) (P2X7 receptor) [µM]	effect on caspase-1 activity (caspase-1)	Casp-1 activation (concentration) (caspase-1)	cytotoxicity (concentration) (JEG-Tox cells [2]; [5])	concentration at which chromatin condensation was initiated (JEG-Tox cells [3])	other results
CC12CCC(/C(=C/c3ccccc3)C1=O)C2(C)C (stereo not drawn) [3-benzylidene camphor]	1.50	triggered P2X7 receptor activation	1 to 10	no effect	no	50 µM	–	viability at 72 h, 50 µM [1, 4]: 70%
Clc1ccc(C(c2ccc(Cl)cc2)C(Cl)(Cl)Cl)cc1 [4,4′DDT]	–	–	–	–	–	–	2 µg/mL	–
CCC(C)(C)c1ccc(O)cc1 [4-tert-amylphenol]	–	triggered P2X7 receptor activation	0.1 to 50	activated caspase-1	50 µM	no	–	P2X7 receptor activation compared to control (P2X7 receptor; 50 μM): 1.36 fold change; caspase-1 activity compared to control (caspase-1): 1.5 fold change; concentration up to which no loss of cell viability was observed (JEG-Tox cells [2]): up to 50 μM
CCCCC(CC)COC(=O)c1ccccc1C(=O)OCC(CC)CCCC (stereo not drawn) [DEHP, Di(2-ethylhexyl)phtalate]	1.16	triggered P2X7 receptor activation	10	no effect	no	50 µM	–	caspase-9 activity compared to control (caspase-9): 1.20 fold change; viability at 72 h, 50 µM [1, 4]: 25%
CCCCCCCCCCCCOS(=O)(=O)[O-].[Na+] [SLS, sodium lauryl sulfate]	–	–	–	–	–	–	–	living cells (JEG-3 cells; 30 μg/mL, 24 h): 37%; living cells (JEG-3 cells; 50 μg/mL, 24 h): 10%; effect on JEG-3 cell viability (JEG-3 cells; 10% FBS, all tested concentrations (up to 50 μg/mL), 24 h, sulfate): no effect; also recorded: did not observe any cell death; concentration inducing a dramatic loss of cell viability (JEG-3 cells; diluted in 2.5% FBS): 30 µg/mL
CCCCOC(=O)c1ccccc1C(=O)OCc1ccccc1 [benzyl butyl phthalate]	1.36	triggered P2X7 receptor activation	0.1 to 10	no effect	no	50 µM	–	caspase-9 activity compared to control (caspase-9): 1.28 fold change; viability at 72 h, 50 µM ([1]; 50 μM, 72 h, read-out: cell viability): 40%
CCCCOC(=O)c1ccccc1C(=O)OCCCC [dibutyl phthalate]	1.6	triggered P2X7 receptor activation	0.01 to 50	no effect	no	–	–	viability at 72 h, 50 µM [1]: 55%; cytotoxicity (concentration) (JEG-Tox cells [2]; human): 50 µM
CC/C(=C(/CC)c1ccc(O)cc1)c1ccc(O)cc1 [diethylstilbestrol]	–	triggered P2X7 receptor activation	7.5	activated caspase-1	7.5 µM	15 µM	–	P2X7 receptor activation compared to control (P2X7 receptor; 7.5 μM): 1.48 fold change; caspase-1 activity compared to control (caspase-1): 1.84 fold change; viability at 72 h, 15 µM ([1]; JEG-Tox cells, 15 μM, 72 h): 40%
CCO [ethanol]	–	–	–	–	–	–	2.5%	–
OCCOc1ccccc1 [phenoxyethanol]	–	–	–	–	–	–	0.15%	–
CCCOC(=O)c1ccc(O)cc1 [propylparaben]	–	triggered P2X7 receptor activation	1 to 100	activated caspase-1	100 µM	–	20 µg/mL	P2X7 receptor activation compared to control (P2X7 receptor; 100 μM): 1.69 fold change; caspase-1 activity compared to control (caspase-1): 2.7 fold change; viability at 72 h, 100 µM [1]: 87%
CCOP(=S)(OCC)Oc1cnc2ccccc2n1 [quinalphos]	–	–	–	–	–	–	0.3 µg/mL	–
Oc1cc(Cl)ccc1Oc1ccc(Cl)cc1Cl [triclosan]	–	triggered P2X7 receptor activation	1	no effect	No	10 µM	–	P2X7 receptor activation compared to control (P2X7 receptor; 1 μM): 1.13 fold change; viability at 72 h, 10 µM ([1]; JEG-Tox cells, 10 μM, 72 h): 60%
